For orientation: LD50 means the dose at which mortality reaches 50%.

We go through 14 molecules from patent EP1081131A1 (priority 1998, dated 1999).

A short description of data set [1]: Acute toxicity on mice (per os). Conditions: mouse, in vivo, white mice, per os in 0.5% solution of starch for 5 days; for LD50 at 5 days: oral; for LD50: po. The method, then:
A study of acute toxicity was carried out according to a standard method on white mice. The animals received the preparation per os in a 0.5% solution of starch for 5 days.

Data set [2] in a line: Carrying of cations from one aqueous phase to another through a layer of nonpolar organic solvent (lipophil membrane). It counts as physicochemical. How it is done:
Purification of the prepared compounds is controlled by the TLC method. The meanings of Rf of the claimed compounds were determined using "Sorbfil" plates (Silicagel CTX-1A, UV) (Russia) or "Silufol- UV" plates (Czechoslovakia). The composition and structure of the new compounds were confirmed by element analysis (C,H,N,O analyzer of the Karlo Erba firm) and also IR (Specord-UV-.751R) and PMR spectroscopy (Tesla BS-597A, 100 MHz). An UZDN-2T ultrasound disperser at a frequency of 22 kHz was used to carry out the reaction with ultrasound action. The cation-carrying properties of the claimed compounds were studied in accordance with a generally accepted method, which consists of studying the carrying of a cation from one aqueous phase to another aqueous phase through a layer of a nonpolar organic solvent.

For another data set, the system named is M. avium. Description: Antimycobacterial activity in vitro, vertical diffusion on dense nutrient. The class given is cell-based. The conditions noted are these: Atypical strain M. avium.
The next data set relates to M. bovis. The class given is cell-based. The conditions noted are these: Typical strain M. bovis.
A further data set has as its system H37Rv. Description: Antimycobacterial activity in vitro, vertical diffusion on dense nutrient. It counts as cell-based, mycobacteria. The conditions noted are these: Typical strain H37Rv.
The next data set deals with M.fortuirum. Described as above. It counts as cell-based. Conditions: Atypical strain M.fortuirum.
The next data set concerns M. smegmatis. The data set is described as above. The class given is cell-based. The conditions noted are these: Atypical strain M. smegmatis.
The subject of the next data set is E. coli. Description: Antibacterial activity in vitro, preparation in a cavity of nutrient agar. It counts as cell-based. How it is done:
(§1) The antibacterial activity of the claimed compounds was studied with the method of seeding solutions of the preparation in a cavity. The test-microbe was put in a Petri dish containing a simple nutrient agar. The preparation in an amount of 0.02 ml in necessary concentrations was put in a cavity located in the middle of the Petri dish. The results were taken after 24-hour incubation in a thermostat at 37°C by determination of the zone of delay of growth of the microorganisms along the edges of the cavity.

The next data set deals with S. epidermides. Described as above. It counts as cell-based. The conditions noted are these: Table 7. The method, then: as §1
In another data set the test system is Lactobacteria. Described as above. It counts as cell-based. Conditions: Table 7. The method, then:
as §1

A further data set deals with S. aureus. Described as above. The class given is cell-based. The conditions noted are these: Table 6. How it is done:
as §1

The subject of the next data set is P. vulgaris. The description is as above. It counts as cell-based. Conditions: Table 6. How it is done:
as §1

For the next data set, the system named is Candida Albicans. The description is as above. The conditions noted are these: Table 6. It counts as cell-based. The method, then: as §1
In data set [3] the test system is Sensitive to streptomycin, rifamycin and isoniazid. The experiment in a line: Bacteriostatic activity on patient strains (Table 4). It counts as cell-based, mycobacteria of tuberculosis. Conditions: taken from patients, Central SRI of Tuberculosis RAMS 1997.
The test system of another data set is strain H37Rv. The experiment in a line: Therapeutic action on infected guinea pigs. It counts as in vivo. The conditions noted are these: for Average change in weight of pigs during test / Weight of lungs / Weight of spleen: 21 mg/kg (isoniazid equivalent dose), 5 times a week for 60 days.

In [1], `O=Cc1ccccc1OCCOCCOc1ccccc1C=O` gave an LD50 at 5 days of over 2000 mg/kg.
“1,5-Bis(2-phenyl hydrazonomethyl phenoxy)-3-oxapentane”: the Speed of carrying in data set [2] (Cation of metal Cu) amounted to 2.0 mol h^-1 10^-7; in data set [2] (Cation of metal Fe), 60.0 mol h^-1 10^-7; in data set [2] (Cation of metal K), 34.5 mol h^-1 10^-7; in data set [2] (Cation of metal Na) it was 28.7 mol h^-1 10^-7.
Consider `O=Cc1ccc(Cl)cc1OCCOc1cc(Cl)ccc1C=O` [1,2-Bis(2-formyl-5-chlorphenoxy)-ethane], for which the “Antimycobacterial activity of claimed preparations in tests In vitro” value (“Antimycobacterial activity” below) was 25.0 µg/mL with M. avium; 0.4 µg/mL in the data set with M. bovis; 0.4 µg/mL in the data set with H37Rv; 25.0 µg/mL in the data set with M.fortuirum; 6.3 to 12.5 µg/mL in the data set on M. smegmatis.
`COc1cc(C=NNC(=O)c2ccccc2)ccc1OCCOc1ccc(C=NNC(=O)c2ccccc2)cc1OC` [1,2-Bis(2-methoxy-4-benzoyl hydrazonomethylphenoxy)-ethane]: the Inhibiting level in the data set with E. coli (Table 7), in the data set on S. epidermides and with Lactobacteria was over 50 µg/mL each time.
For `O=C(NN=Cc1c(OCCOc2ccc3ccccc3c2C=NNC(=O)c2ccccc2)ccc2ccccc12)c1ccccc1` [1,2-Bis[2(benzoyl hydrazonomethylnaphthoxy-2)]-ethane], the Inhibiting level in the data set on E. coli (Table 7), with S. epidermides and with Lactobacteria was over 50 µg/mL in each case.
Take `O=C(NN=Cc1ccccc1OCCOCCOc1ccccc1C=NNC(=O)c1ccccc1)c1ccccc1` [1,5-Bis(2-benzoyl hydrazonomethylphenoxy)-3-oxapentane]: the LD50 in data set [1] is over 1000 mg/kg.
Turning to `O=C(NN=Cc1ccccc1OCCOCCOc1ccccc1C=NNC(=O)c1ccncc1)c1ccncc1` [1,5-Bis(2-isonicotinoyl hydrazonomethylphenoxy)-3-oxapentane], the “Antimycobacterial activity” value in the data set on M. avium amounted to 25.0 µg/mL; in the data set on M. bovis, 0.01 µg/mL; in the data set with H37Rv it was 0.01 µg/mL; in the data set on M.fortuirum, 12.5 µg/mL; with M. smegmatis it was 12.5 µg/mL. For the same molecule, the Inhibiting level is over 500 µg/mL with E. coli (Table 6); over 500 µg/mL in the data set with S. aureus; over 500 µg/mL in the data set on P. vulgaris; over 500 µg/mL in the data set with Candida Albicans; 0.58 µg/mL in data set [3].
As for `O=Cc1ccccc1OCCOc1ccccc1C=O` [1,8-Bis(2-formylphenoxy)-ethane], the Inhibiting level in the data set with E. coli (Table 7), in the data set with S. epidermides and with Lactobacteria was over 200 µg/mL in each case.
As to `O=C(NN=Cc1ccccc1OCCOCCOCCOc1ccccc1C=NNC(=O)c1ccncc1)c1ccncc1` [1,8-bis(2-isonicotinoyl hydrazonomethylphenoxy)-3,6-dioxaoctane], the “Antimycobacterial activity” value with M. avium stood at 25.0 µg/mL; with H37Rv, 0.05 µg/mL; in the data set with M.fortuirum it was 12.5 µg/mL; in the data set with M. smegmatis, 12.5 µg/mL. The Inhibiting level with E. coli (Table 6), in the data set with S. aureus, in the data set on P. vulgaris and with Candida Albicans was over 500 µg/mL in each case. Moreover, the LD50 in data set [1] is over 2000 mg/kg. For the same molecule, the “Average change in weight of pigs during test” value in the data set on strain H37Rv is 148.80 ± 29.40 g. In the data set with strain H37Rv, the Weight of lungs is 4.90 ± 0.90 g. The Weight of spleen in the data set with strain H37Rv was 8.98 ± 0.15 g.
In the case of `O=C(NN=Cc1ccccc1OCCCCOCCCCOc1ccccc1C=NNC(=O)c1cccnc1)c1cccnc1` [1,9-Bis(2-nicotinoyl hydrazonomethylphenoxy)-5-oxanonon], the Inhibiting level in the data set with E. coli (Table 7), in the data set on S. epidermides and in the data set with Lactobacteria was over 100 µg/mL throughout.
For the molecule `O=C(NN=Cc1ccccc1OCCOCCOCCOCCOc1ccccc1C=NNC(=O)c1ccncc1)c1ccncc1` [1.11-Bis(2-isonicotinoyl hydrazonomethylphenoxy)-3,6,9-trioxaundecane], the Inhibiting level in the data set with E. coli (Table 7), in the data set with S. epidermides and in the data set on Lactobacteria was over 50 µg/mL in each case.
As to `C=CCSc1nc2ccc(NC(=O)c3ccccc3Cl)cc2s1` [Compound formula (II), 2-(allylthio)-6-(2-chlorobenzoylamino)benzothiazole, reference compound], the entries for the “Antimycobacterial activity” value in the data set with M. avium, in the data set with H37Rv and in the data set on M.fortuirum were 25.0 µg/mL, 10.0 µg/mL and 10.0 µg/mL, respectively.
As to `NNC(=O)c1ccncc1` [Isoniazid, hydrazide of isonicotinic acid, reference compound], the “Antimycobacterial activity” value with M. avium stood at 50.0 µg/mL; in the data set with M. bovis it was 0.05 µg/mL; with H37Rv, 0.05 µg/mL; with M.fortuirum it was 50.0 µg/mL; in the data set on M. smegmatis, 50.0 µg/mL. In addition, the LD50 at 5 days in data set [1] turned out to be 363 mg/kg. The same molecule registered an Inhibiting level in data set [3] of 0.29 µg/mL. The “Average change in weight of pigs during test” value in the data set on strain H37Rv was found to be 180.60 ± 18.80 g. Besides, the Weight of lungs in the data set on strain H37Rv came to 4.49 ± 0.80 g. In the data set with strain H37Rv, the Weight of spleen is 9.34 ± 0.30 g. Moreover, the “tuberculosis changes after the end of the course of treatment” value in the data set with strain H37Rv (after 60 days of treatment) is “detected as morphological, not as bacteriological”.
In the case of `O=C(NN=Cc1cccc(OCCOCCOCCOc2cccc(C=NNC(=O)c3cccnc3)c2)c1)c1cccnc1.[Ni]` [[1,8-Bis(3-nicotinoyl hydrazonomethyl phenoxy)-3,6-dioxaoctanejnickel(II)], the Inhibiting level with E. coli (Table 7), in the data set on S. epidermides and in the data set on Lactobacteria was over 50 µg/mL in each case.
